# Patent publication US6642247B2 (priority 1998, dated 2003)
row,SMILES,melting point
1,Cl.OC1CCN(c2ccccc2)C12CCN(C1CCC3CCCCC3C1)CC2 (stereo not shown),> 250 °C
2,O=C(O)/C=C/C(=O)O.O=C1CCN(c2ccccc2)C12CCN(C1CCCCCCC1)CC2,197 °C
3,O=C(O)/C=C/C(=O)O.O=C1CCN(c2ccccc2)C12CCN(C1C[C@H]3CCCC[C@H]3C1)CC2 (stereo partly shown),225 °C
4,O=C(O)/C=C/C(=O)O.O=C1CCN(c2ccccc2)C12CCN(C1CCCCCCCCC1)CC2,177 °C
5,O=C(O)/C=C/C(=O)O.O=C1CCN(c2ccccc2)C12CCN(C1CCCCCCCC1)CC2,185 °C
6,CC(C)[C@H]1CC[C@H](N2CCC3(CC2)C(=O)CCN3c2ccccc2)CC1.Cl,237 to 238 °C
7,CC(C)[C@H]1CC[C@@H](N2CCC3(CC2)[C@H](O)CCN3c2ccccc2)CC1.Cl,> 250 °C
8,CC(C)[C@H]1CC[C@@H](N2CCC3(CC2)[C@@H](O)CCN3c2ccccc2)CC1.Cl,> 250 °C
9,Cl.O=C1CCN(c2ccccc2)C12CCN(C1Cc3ccccc3C1)CC2,> 250 °C
10,CC(C)[C@H]1CC[C@@H](N2CCC3(CC2)ON=C(c2ccccc2)N3c2ccccc2)CC1.Cl,131 °C
11,Cl.Cl.OC1CCN(c2ccccc2)C12CCN(C1CCCCCCCC1)CC2 (racemic),170 °C (dec.)
12,Cl.Cl.OC1CCN(c2ccccc2)C12CCN(C1CCCCCCCCC1)CC2 (racemic),170 °C (dec.)
13,Cl.Cl.OC1CCN(c2ccccc2)C12CCN(C1CCCCCCC1)CC2 (racemic),173 °C (dec.)
14,CC(C)[C@H]1CC[C@@H](N2CCC3(CC2)C(O)CCN3c2ccccc2)CC1.Cl (mixture of isomers),> 250 °C
15,O=C(O)/C=C/C(=O)O.O=C1CCN(c2ccccc2)C12CCN([C@@H]1CC[C@H]3CCCc4cccc1c43)CC2 (racemic),144 °C
16,Cl.OC1CCN(c2ccccc2)C12CCN(C1Cc3ccccc3C1)CC2 (racemic),> 250 °C
17,COC1CCN(c2ccccc2)C12CCN([C@H]1CC[C@@H](C(C)C)CC1)CC2.Cl (mixture of isomers),214 to 215 °C
18,Cc1cccc2c1CC(N1CCC3(CC1)C(=O)CCN3c1ccccc1)C2.Cl (racemic),> 250 °C
19,CC(C)[C@H]1CC[C@H](N2CCC3(CC2)C(O)CCN3c2ccccc2)CC1.Cl (mixture of isomers),> 250 °C
20,Cl.O=C1CCN(c2ccccc2)C12CCN([C@@H]1CC[C@@H]3CCCC[C@@H]3C1)CC2 (racemic),250 to 251 °C (dec.)
21,COC1CCN(c2ccccc2)C12CCN(C1CCCCCCCCC1)CC2.Cl.Cl (racemic),170 °C (dec.)
22,COC1CCN(c2ccccc2)C12CCN(C1CCCCCCCC1)CC2.O=C(O)/C=C/C(=O)O (racemic),196 °C (dec.)
